Tests used:
MDA-MB-231 [1] = test: cells; settings: Homo sapiens, MDA-MB-231, 72 h
Description: Cytotoxicity against human MDA-MB-231 cells after 72 hrs by MTT assay

LNCaP = test: cells; settings: Homo sapiens, 72 h
Description: Cytotoxicity against human LNCAP cells after 72 hrs by MTT assay

[2] = biological target: Heat shock protein HSP 90-alpha (Homo sapiens, UniProt P07900); test: Displacement of GA-FITC from human recombinant HSP90alpha ATP-binding site by fluorescence polarization assay
MDA-MB-231 [3] = test: Antitumor activity against human MDA-MB-231 cells xenografted in BALB/c mouse assessed as tumor volume at 10 mg/kg, iv dosed every 3 days for 15 days relative to untreated control; type: functional
MDA-MB-231 [4] = test: Antitumor activity against human MDA-MB-231 cells xenografted in BALB/c mouse assessed as reduction in tumor weight at 10 mg/kg, iv dosed every 3 days for 15 days; type: functional; settings: read-out: GI
Mus musculus [5] = test: Hepatotoxicity in Kunming mouse assessed as serum ALT level at 10 mg/kg, iv (reference value: 60.7 +/- 6.9 U/L); type: toxicity, organism-based; parameters: dose 10 mg/kg, route intravenous; settings: in vivo
Mus musculus [6] = test: Hepatotoxicity in Kunming mouse assessed as serum AST level at 10 mg/kg, iv (reference value: 197.2 +/- 11.2 U/L); type: toxicity, organism-based; parameters: dose 10 mg/kg, route intravenous; settings: in vivo

Row | SMILES | IC50 (MDA-MB-231 [1]) | IC50 (LNCaP) | IC50 [2] | T/C (MDA-MB-231 [3]) | inhibition in vivo at 10 mg/kg (MDA-MB-231 [4]) | Activity (Mus musculus [5]) | Activity (Mus musculus [6])
1 | CO[C@H]1/C=C\C=C(/C)C(=O)NC2=CC(=O)C(NCc3ccc(S(C)(=O)=O)cc3)=C(C[C@@H](C)C[C@H](OC)[C@H](O)[C@@H](C)/C=C(\C)[C@@H]1OC(N)=O)C2=O | 350 nM | 850 nM | – | – | – | – | –
2 | CO[C@H]1/C=C\C=C(/C)C(=O)NC2=CC(=O)C(NCc3cccc([N+](=O)[O-])c3)=C(C[C@@H](C)C[C@H](OC)[C@H](O)[C@@H](C)/C=C(\C)[C@@H]1OC(N)=O)C2=O | 690 nM | 340 nM | – | – | – | – | –
3 | CO[C@H]1/C=C\C=C(/C)C(=O)NC2=CC(=O)C(NCc3ccc(I)cc3)=C(C[C@@H](C)C[C@H](OC)[C@H](O)[C@@H](C)/C=C(\C)[C@@H]1OC(N)=O)C2=O | 360 nM | 1360 nM | – | – | – | – | –
4 | CO[C@H]1/C=C\C=C(/C)C(=O)NC2=CC(=O)C(NCc3ccc(F)cc3)=C(C[C@@H](C)C[C@H](OC)[C@H](O)[C@@H](C)/C=C(\C)[C@@H]1OC(N)=O)C2=O | 630 nM | 2280 nM | – | – | – | – | –
5 | CO[C@H]1/C=C\C=C(/C)C(=O)NC2=CC(=O)C(NCc3ccc(C(F)(F)F)nc3)=C(C[C@@H](C)C[C@H](OC)[C@H](O)[C@@H](C)/C=C(\C)[C@@H]1OC(N)=O)C2=O | 100 nM | 350 nM | 430 nM | 31% | 63% | 61 U/L | 164.1 U/L
6 | CO[C@H]1/C=C\C=C(/C)C(=O)NC2=CC(=O)C(NCc3ccc(F)c(F)c3)=C(C[C@@H](C)C[C@H](OC)[C@H](O)[C@@H](C)/C=C(\C)[C@@H]1OC(N)=O)C2=O | 630 nM | > 10000 nM | – | – | – | – | –
7 | COc1ccccc1CNC1=C2C[C@@H](C)C[C@H](OC)[C@H](O)[C@@H](C)/C=C(\C)[C@H](OC(N)=O)[C@@H](OC)/C=C\C=C(/C)C(=O)NC(=CC1=O)C2=O | 460 nM | > 10000 nM | – | – | – | – | –
8 | COC1=C2C[C@@H](C)C[C@H](OC)[C@H](O)[C@@H](C)/C=C(\C)[C@H](OC(N)=O)[C@@H](OC)/C=C\C=C(/C)C(=O)NC(=CC1=O)C2=O [GELDANAMYCIN] | – | – | – | – | – | 273 U/L | 317.2 U/L
9 | CO[C@H]1/C=C\C=C(/C)C(=O)NC2=CC(=O)C(NCc3ccsc3)=C(C[C@@H](C)C[C@H](OC)[C@H](O)[C@@H](C)/C=C(\C)[C@@H]1OC(N)=O)C2=O | 400 nM | 680 nM | – | – | – | – | –
10 | CO[C@H]1/C=C\C=C(/C)C(=O)NC2=CC(=O)C(NCc3cncn3C)=C(C[C@@H](C)C[C@H](OC)[C@H](O)[C@@H](C)/C=C(\C)[C@@H]1OC(N)=O)C2=O | 410 nM | 440 nM | – | – | – | – | –
11 | COC(=O)c1ccc(CNC2=C3C[C@@H](C)C[C@H](OC)[C@H](O)[C@@H](C)/C=C(\C)[C@H](OC(N)=O)[C@@H](OC)/C=C\C=C(/C)C(=O)NC(=CC2=O)C3=O)cc1 | 130 nM | 1030 nM | – | – | – | – | –
12 | CO[C@H]1/C=C\C=C(/C)C(=O)NC2=CC(=O)C(NCc3ccccc3C)=C(C[C@@H](C)C[C@H](OC)[C@H](O)[C@@H](C)/C=C(\C)[C@@H]1OC(N)=O)C2=O | 1670 nM | 5700 nM | – | – | – | – | –
13 | CO[C@H]1/C=C\C=C(/C)C(=O)NC2=CC(=O)C(NCc3ccc(S(N)(=O)=O)cc3)=C(C[C@@H](C)C[C@H](OC)[C@H](O)[C@@H](C)/C=C(\C)[C@@H]1OC(N)=O)C2=O | 1060 nM | 960 nM | – | – | – | – | –
14 | CO[C@H]1/C=C\C=C(/C)C(=O)NC2=CC(=O)C(NCc3cccc(C)c3)=C(C[C@@H](C)C[C@H](OC)[C@H](O)[C@@H](C)/C=C(\C)[C@@H]1OC(N)=O)C2=O | 800 nM | 5230 nM | – | – | – | – | –
15 | CO[C@H]1/C=C\C=C(/C)C(=O)NC2=CC(=O)C(NCc3ccc(OC(F)(F)F)cc3)=C(C[C@@H](C)C[C@H](OC)[C@H](O)[C@@H](C)/C=C(\C)[C@@H]1OC(N)=O)C2=O | 180 nM | 570 nM | – | – | – | – | –
16 | COc1ccc(CNC2=C3C[C@@H](C)C[C@H](OC)[C@H](O)[C@@H](C)/C=C(\C)[C@H](OC(N)=O)[C@@H](OC)/C=C\C=C(/C)C(=O)NC(=CC2=O)C3=O)cc1 | 180 nM | 7810 nM | – | – | – | – | –
17 | CO[C@H]1/C=C\C=C(/C)C(=O)NC2=CC(=O)C(NCc3ccc(N)cc3)=C(C[C@@H](C)C[C@H](OC)[C@H](O)[C@@H](C)/C=C(\C)[C@@H]1OC(N)=O)C2=O | 170 nM | 50 nM | 890 nM | 55% | 46% | 74.9 U/L | 215.8 U/L
18 | CO[C@H]1/C=C\C=C(/C)C(=O)NC2=CC(=O)C(NCc3ccc(Br)cc3)=C(C[C@@H](C)C[C@H](OC)[C@H](O)[C@@H](C)/C=C(\C)[C@@H]1OC(N)=O)C2=O | 240 nM | > 10000 nM | – | – | – | – | –

Source: ChEMBL document CHEMBL3352235, “Design, synthesis and biological evaluation of 17-arylmethylamine-17-demethoxygeldanamycin derivatives as potent Hsp90 inhibitors” (Eur J Med Chem, 2014)
